Measured values taken from patent US20060160906A1, “Polyamine analogs as therapeutic agents for ocular diseases” (priority 2004, published 2006).
Entries after “also recorded” stand apart in the source; their conditions may differ.

How the values were obtained:
[1] = test system: subretinal neovascularization; assay: Rhodopsin/VEGF transgenic mice, subretinal neovascularization; assay type: in vivo, rhodopsin/VEGF transgenic mice (V6 mice); conditions: periocular injection at P7, measured P21; 100 μg CGC-11144, 1 mg CGC-11047, 750 μg CGC-11093
From the text: Transgenic mice (V6 mice) in which the rhodopsin promoter drives expression of VEGF165 in photoreceptors have onset of VEGF expression at post-natal day 7 (P7) and soon after begin to develop neovascularization originating from the deep capillary bed that grows through the photoreceptor layer into the subretinal space. (Okamoto N et al., Amer. J. Pathol. 151: 281-91 (1997); Tobe T et al., Invest. Ophthalmol. Vis. Sci. 39: 180-188 (1998)). Hemizygous transgene positive mice were given a periocular injection of 100 μg of CGC-11144 (n=3), 1 mg of CGC-11047 (n=3), 750 μg of CGC-11093 (n=3) or vehicle (n=7) at P7. At post-natal day 21 (P21), mice were euthanized and the amount of subretinal neovascularization was quantified as previously described (Tobe, ibid.). Briefly, mice were anesthetized, perfused with fluorescein-labeled dextran, and the number of neovascular lesions on the outer surface of the retina and their total area were measured on retinal flat mounts by image analysis as described in Example 1.

[2] = test system: choroidal neovascularization (CNV) at Bruch's membrane rupture sites; assay: Mouse model of laser-induced choroidal neovascularization (rupture of Bruch's membrane), CNV area on choroidal flat mounts; assay type: in vivo, C57BL/6J mice; conditions: for amount of established CNV on day 14 vs vehicle and day 7 baseline (regression): single periocular injection at day 7; for amount of CNV on day 14 vs vehicle (suppression): single periocular injection at time of rupture
[3] = test system: retinal neovascularization; assay: Oxygen-induced ischemic retinopathy, retinal neovascularization; assay type: in vivo, neonatal C57BL/6 mice; conditions: 100 μg CGC-11144, 1 mg CGC-11047, 750 μg CGC-11093; for amount of retinal neovascularization at P20 vs vehicle (regression): daily periocular injections P17 to P20; for amount of retinal neovascularization at P17 vs vehicle (suppression): periocular injection at P12
Method: Ischemic retinopathy can be produced in neonatal C57BL/6 mice as described (Smith, L. E et al., Invest. Opthalmol. Vis. Sci. 35: 101-111 (1994)) and serves as a model for retinopathy of prematurity (ROP). Post-natal day 7 (P7) mice and their mothers were placed in an airtight incubator and exposed to an atmosphere of 75±3% oxygen for 5 days. Incubator temperature was maintained at 23±2° C. and oxygen was continuously monitored with a PROOX model 110 oxygen controller (Reming Bioinstruments Co., Redfield, N.Y.). At post-natal day 12, mice were placed back in room air and were given a periocular injection of 3 μl containing 100 μg of CGC-11144 (n=4), 1 mg of CGC-11047 (n=4), 750 μg of CGC-11093 (n=4) or vehicle. On post-natal day 17 (P17) the treated and control mice were euthanized and the amount of retinal neovascularization was measured.
For measurement of retinal neovascularization, eyes were removed and fixed in 2% paraformaldehyde in phosphate buffered saline (PBS) for one hour and rinsed twice in 25% sucrose in PBS. Specimens were incubated in 25% sucrose in PBS overnight and embedded in OCT compound (Miles Diagnostics, Elkhart, Ind.),). 10 μm frozen sections were post-fixed for 15 minutes in 0.5% glutaraldehyde in PBS and washed in PBS. Sections were also histochemically stained with biotinylated Griffonia simplicifolia lectin B4 (GSA, Vector Laboratories, Burlingame, Calif.), which selectively binds to vascular cells. Slides were incubated in methanol/H2O2 for 10 minutes at 4° C., washed with 0.05 M Tris-buffered saline, pH 7.6 (TBS), and incubated for 30 minutes in 10% normal porcine serum. Slides were incubated 2 hours at room temperature with biotinylated GSA and after rinsing with 0.05M TBS, they were incubated with avidin coupled to peroxidase (Vector Laboratories, Burlingame, Calif.) for 30 minutes at room temperature. After being washed for 10 minutes with 0.05M TBS, slides were incubated with diaminobenzidine (Research Genetics, Huntsville, Ala.) to give a brown reaction product.
To perform quantitative assessments, 10 μm frozen serial sections were cut from the iris root on one side of the eye to the iris root on the opposite side of the eye and every tenth section was stained with GSA. Retinas were examined with an Axioskop microscope and images were digitized using a 3 CCD color video camera and a frame grabber. Image-Pro Plus software was used to delineate GSA-stained vascular cells above the internal limiting membrane and the total area of staining was measured.
To investigate the effect of these agents on regression of retinal neovascularization, ischemic retinopathy was induced and left untreated until P17, when the baseline amount of retinal neovascularization was measured in one group of mice. From post-natal days 17 to 20 (P17 to P20) the remainder of the mice were given daily periocular injections of 100 μg of CGC-11144 (n=4), 1 mg of CGC-11047 (n=4), 750 μg of CGC-11093 (n=4) or vehicle. On P20 the mice were euthanized and the amount of retinal neovascularization in the treated and control mice was measured as described above.

[4] = 2 mg CGC-11047, 1.5 mg CGC-11093
[5] = 200 μg CGC-11144, 2 mg CGC-11047, 1.5 mg CGC-11093
[6] = single periocular injection one week prior to rupture, 200 μg CGC-11144, 2 mg CGC-11047, 1.5 mg CGC-11093
[7] = single periocular injection three weeks before laser, 2 mg CGC-11047, 1.5 mg CGC-11093
[8] = single periocular injection two weeks prior to rupture, 200 μg CGC-11144, 2 mg CGC-11047, 1.5 mg CGC-11093

Structure (SMILES) | subretinal neovascularization vs vehicle [1] | amount of established CNV on day 14 vs vehicle and day 7 baseline (regression) [2, 4] | amount of CNV on day 14 vs vehicle (suppression) [2, 5] | amount of CNV vs vehicle (duration of effect) [2, 6] | amount of CNV vs vehicle (duration of effect) [2, 7] | amount of CNV vs vehicle (duration of effect) [2, 8] | amount of retinal neovascularization at P20 vs vehicle (regression) [3] | amount of retinal neovascularization at P17 vs vehicle (suppression) [3] | area of CNV vs day 7 baseline and vehicle fellow eyes (regression) ([2]; daily periocular injections days 7 to 14, 200 μg CGC-11144, 100 μg DFMO, or both)
CCNCCCCNCC1CC1CNCCCCNCC (centres unmarked) [CGC-11093] | significantly less subretinal neovascularization | less CNV than those treated with vehicle and less than the baseline amount of CNV | significantly reduced the amount of CNV | significant reduction of the amount of CNV | no significant effect | significantly smaller amounts of CNV | significantly less neovascularization | significantly less | 
NCCCC(N)(C(=O)O)C(F)F (racemic) [DFMO, D,L-α-difluoromethyl-omithine, reference compound] |  |  |  |  |  |  |  |  | significant reduction in the area of CNV; also recorded: significantly less
CCNCCCNC/C=C\CNCCCNCC [CGC-11047] | significantly less subretinal neovascularization | less CNV than those treated with vehicle and less than the baseline amount of CNV | significantly reduced the amount of CNV | significant reduction of the amount of CNV | no significant effect | significantly smaller amounts of CNV | significantly less neovascularization | significantly less | 
